Test results as given in article PMC5986738, “Thiazole Amides, A Novel Class of Algaecides against Freshwater Harmful Algae” (Scientific Reports, 2018).
≈ marks a conversion by molar mass, not a printed value.

Columns and labels:
[1] = tested on: dinoflagellates and raphidophytes; parameters: method as in doi:10.1016/j.tetlet.2003.08.115, PMID 17988095; conditions: cited from earlier work
C. pyrenoidosa = assay: Algicidal activity (growth inhibition, microplate, absorbance 650 nm) against C. pyrenoidosa; assay type: cell-based, Chlorella pyrenoidosa; conditions: Auxenochlorella pyrenoidosa; 96-hour IC50, mean ± SD; read-out: IC50 value C. pyrenoidosa
Method: (§1) According to the method established by Schrader et al.[42], algicidal activity of alkaloid (1) and its amide analogues (7–32), as well as their hydrochloric salts (7S–27S), was evaluated against three typical […] algae, S. obliqnus, M. aeruginosa, and C. Pyrenoidosa at different concentrations. After three algae species were inoculated, the variation of algae density over 7 days were recorded continuously. […] The wavelength at 650 nm was determined as ideal incident wavelength for the measurement of algae density. Three […] algae S. obliqnus, M. aeruginosa, and C. pyrenoidosa were offered by Freshwater algae culture collection of the institute of Hydrobiology (FACHB-collection). Each culture for three species was maintained separately in continuous, steady-state growth microplates, which were placed in a growth chamber held at 28 ± 1 °C and illuminated continuously under fluorescent lights at a photon flux density of […]. Absorbance values of each wells were measured by a Packard model Spectra Count microplate photometer.
(§2) Alkaloid (1) and its analogues (7–32), as well as their hydrochloric salts (7S–27S), were dissolved separately in DMSO to provide stock solution concentrations. Initially, each stock solution was aseptically pipetted into the bottom of separate wells (20 μL per well) in a 96-well microplate and the final test concentrations for each sample were 0, 0.78, 1.56, 3.12, 6.25, 12.5, and 25 μg/mL. Wells of control samples contained only unialgal culture. The solution of CuSO4 and Diuron at the same concentration were chose as the reference sample. Each experiment was performed at least three times. Through measuring the area values under the individual growth curves, the inhibitory rate (%) for the individual tested concentration was calculated according to the following equation (1):1 Ii=(Ac−Ai)/[…]×100% • Ii: inhibitory rate of biomass growth by toxicant concentration i (%) • Ac: average area under the growth curve by control sample • Ai: average area under the growth curve by test concentration i
(§3) Mean values of 96-hour IC50 were determined for each group of plates, and standard deviation were calculated and reported as the mean ± SD.
(§4) The IC50 values of all compounds against three freshwater algae species were calculated using SPSS v19.0, and the algicidal activities of alkaloid (1) and its amide analogues (7–32), as well as the corresponding hydrochloric salts (7S–27S) are listed in Table 1 and 2, respectively.

Barchydanio rerio var = assay: Toxicity toward fish; assay type: in vivo; conditions: for Survival ratio in 7 days: fish
Method: (§5) Toxicity of this class of thiazole amides towards non-target organisms, such as higher plants and fishes, was evaluated preliminarily using compound (10) as a representative sample. Herbicidal activity of compound (10) against two terrestrial plants, Brassica campestris and Echinochloa crusgalli, and two aquatic plants, Ceratophyllum demersum L and Hydrilla verticillata, was evaluated at a concentration of 500 mg/L using a previously reported method. In addition, toxicity of compound (10) toward fish Barchydanio rerio var was also tested at the concentrations of 200 mg/L and 100 mg/L, respectively.

Hydrilla verticillata = assay: Herbicidal activity against aquatic plant H. verticillata; assay type: in vivo; conditions: n.a.: no activity
Method: as §5

M. aeruginosa = assay: Algicidal activity (growth inhibition, microplate, absorbance 650 nm) against M. aeruginosa; assay type: cell-based; conditions: for growth inhibitory ratio: 3.13 μg/mL; for IC50: Microcystis aeruginosa, 96-hour IC50, mean ± SD, read-out: IC50 value M. aeruginosa
Method: as §1, §2, §3, §4
Currently, M. aeruginosa appears to be the most harmful algae existing in the freshwater bodies in the developing countries. To investigate growth inhibitory potential of this class of thiazole amides on M. aeruginosa, thiazole amide (10) and its hydrochloric acid salt (10S) were subject to further survey for the optimal inhibition time and concentration (Figs 3 and 4). […] The variation of growth inhibitory ratios of compounds (10) and (10S) against M. aeruginosa at the lowest complete inhibition concentration is illustrated in Fig. 4. As observed, for administration of thiazole amide (10), the growth inhibitory ratios after 96 and 120 hours increase gradually to 79% and 92%, respectively. Under the same experimental conditions, growth inhibitory ratios for the salt (10S) are 82% and 88%, respectively.

S. obliqnus = assay: Algicidal activity (growth inhibition, microplate, absorbance 650 nm) against S. obliqnus; assay type: cell-based; conditions: for IC50: 96 h, 96-hour IC50, mean ± SD, read-out: IC50 value S. obliqnus
Method: as §1, §2, §3, §4

Echinochloa crusgalli = assay: Herbicidal activity against terrestrial plant E. crusgalli; assay type: in vivo; conditions: n.a.: no activity
Method: as §5

Brassica campestris = assay: Herbicidal activity against terrestrial plant B. campestris; assay type: in vivo; conditions: n.a.: no activity
Method: as §5

Ceratophyllum demersum L = assay: Herbicidal activity against aquatic plant C. demersum L; assay type: in vivo; conditions: n.a.: no activity
Method: as §5

Microcystis aeruginosa = tested on: Microcystis aeruginosa; parameters: method as in PMID 16468755, PMID 16378379; conditions: cited from earlier work
Kirchneriella contorta = tested on: Kirchneriella contorta; parameters: method as in PMID 16468755, PMID 16378379; conditions: cited from earlier work
[2] = parameters: method as in PMID 16468755, PMID 16378379; conditions: Synechococcus obliqnus; cited from earlier work

| SMILES | melting point | IC50 (C. pyrenoidosa) | IC50 (M. aeruginosa) | IC50 (S. obliqnus) | further results |
| --- | --- | --- | --- | --- | --- |
| CC(=O)c1nc(C(=O)NCCc2c[nH]c3ccccc23)cs1 [bacillamide A] | – | – | – | – | antibiotic activity (in words) [1]: potent antibiotic activity |
| C[C@H](N)c1nc(C(=O)Nc2ccc(Br)cc2)cs1 [compound 10] | – | 1.52 ± 0.05 µg/mL (≈ 4.66 µM) | 1.51 ± 0.11 µg/mL (≈ 4.63 µM) | – | toxicity toward fish (in words) (Barchydanio rerio var; 100 and 200 mg/L): safe; Survival ratio in 7 days (Barchydanio rerio var; dosage 100 mg/L): 100%; Survival ratio in 7 days (Barchydanio rerio var; dosage 200 mg/L): 100%; Herbicidal activity (500 mg/L) H. verticillata (Hydrilla verticillata): none-toxic; growth inhibitory ratio (M. aeruginosa; after 96 hours): 79%; growth inhibitory ratio (M. aeruginosa; after 120 hours): 92%; algicidal activity, times higher than CuSO4 and Diuron (S. obliqnus; S. obliqnus, from IC50 values): more than 10 times; Herbicidal activity (500 mg/L) E. crusalli (Echinochloa crusgalli): none-toxic; Herbicidal activity (500 mg/L) B. campestris (Brassica campestris): none-toxic; Herbicidal activity (500 mg/L) C. demersum L. (Ceratophyllum demersum L): none-toxic |
| CC(=O)c1ccc(NC(=O)c2csc([C@H](C)N)n2)cc1 [compound 27] | 139 to 141 °C | 2.84 ± 0.23 µg/mL (≈ 9.81 µM) | 2.33 ± 0.32 µg/mL (≈ 8.05 µM) | 4.73 ± 0.54 µg/mL (≈ 16.3 µM) | – |
| CCCCNC(=O)c1csc([C@H](C)N)n1 [compound 30] | 109 to 111 °C | 4.65 ± 0.25 µg/mL (≈ 20.5 µM) | 5.47 ± 0.41 µg/mL (≈ 24.1 µM) | 5.23 ± 0.36 µg/mL (≈ 23 µM) | – |
| C[n+]1ccc2c(c1)[nH]c1ccc(Cl)cc12 [nostocarboline] | – | – | – | – | IC50 (Microcystis aeruginosa): 2.1 µM; IC50 (Kirchneriella contorta): 29.1 µM; IC50 [2]: 5.8 µM |

More lines, main results first:

| melting point | SMILES | IC50 (C. pyrenoidosa) | IC50 (M. aeruginosa) | IC50 (S. obliqnus) | further results |
| --- | --- | --- | --- | --- | --- |
| 135 to 137 °C | Cc1cccc(NC(=O)c2csc([C@H](C)N)n2)c1 [compound 16] | 7.18 ± 0.05 µg/mL (≈ 27.5 µM) | 24.2 ± 3.12 µg/mL (≈ 92.4 µM) | 2.86 ± 0.14 µg/mL (≈ 10.9 µM) | – |
| 82 to 84 °C | COc1ccccc1NC(=O)c1csc([C@H](C)N)n1 [compound 22] | 2.19 ± 0.71 µg/mL (≈ 7.9 µM) | 3.12 ± 0.56 µg/mL (≈ 11.2 µM) | < 1 µg/mL | – |
| 64 to 67 °C | C[C@H](N)c1nc(C(=O)NCc2ccccc2)cs1 [compound 32] | 4.16 ± 0.88 µg/mL (≈ 15.9 µM) | 9.48 ± 1.08 µg/mL (≈ 36.3 µM) | 100.2 ± 0.34 µg/mL (≈ 383 µM) | – |
